Reference: US20060040854A1, “Prostate hyperplasia therapy” (Board of Regents, The University of Texas System, priority 2004, published 2006)

What was measured:
[1] = system: androgen-induced prostatic enlargement in rats; experiment: Androgen-induced prostatic enlargement in castrated rats, finasteride vs insulin-6; type: in vivo
Experimental: The efficacy of insulin-6 in reducing prostate growth is evaluated against finasteride in a comparative therapeutic protocol adapted from Talpur et al,0 Mol Cell Biochem. 2003 August;250(1-2):21-6. Pharmaceutical finasteride and alpha blockers are used to treat symptoms of benign prostatic hyperplasia (BPH) and are known to cause severe adverse reactions. The present study compares the in vivo effects of finasteride on androgen-induced prostatic enlargement in rats with insulin-6. Non-castrated rats, have a mean prostate weight of 124 mg+/−8.8 (S.E.M.) compared to the 24.5 mg+/−1.9 (S.E.M.) of a castrated rat followed under the same regimen (p<0.01). […] In the two treatment groups, castrated rats receiving testosterone are given finasteride or insulin-6.

[2] = system: dogs with spontaneous benign prostatic hypertrophy
Experimental: The effect of insulin-6 on prostate size in benign prostatic hyperplasia is evaluated in a comparative study of finasteride and insulin-6 on size of the prostate gland and semen quality in dogs with benign prostatic hypertrophy in a protocol adapted from Sirinarumitr et al., J Am Vet Med Assoc. 2001 Apr. 15;218(8):1275-80.
Of […] dogs with BPH, five dogs are treated with insulin-6 or finasteride for 16 weeks (0.1 to 0.5 mg/kg [0.05 to 0.23 mg/lb] of body weight, PO, q 24 h); the other 4 receive a placebo. Prostatic diameter, measured radiographically, prostatic volume, measured ultrasonographically, semen quality, and serum DHT and testosterone concentrations are evaluated before and during treatment. After receiving the placebo for 16 weeks, the control dogs are treated with insulin-6 or finasteride for 16 weeks, and evaluations repeated.

[3] = system: symptomatic benign prostatic hyperplasia (BPH); experiment: Prospective study of finasteride, insulin-6 and combination in symptomatic benign prostatic hyperplasia; type: in vivo; settings: men with BPH
Experimental: A prospective study is used to evaluate the therapeutic effect of finasteride, insulin-6, and a combination of finasteride and insulin-6 drugs for symptomatic benign prostatic hyperplasia (BPH). In a protocol adapted from Kuo (Urol Int. 1998;60(2):85-91), 190 men suffering from severe prostatism are subjected to study.
Patients are assessed by IPSS symptom score, digital rectal examination, transrectal sonography of the prostate, uroflowmetry and residual urine. The patients are randomly selected for medical treatment with insulin-6 (n=71), finasteride 5 mg q.d. (n=54), and a combination (n=65). Clinical assessments are carried out before treatment and 3 and 6 months after starting treatment. Patients who can not complete the treatment and those with prostatic cancer are excluded from the final statistics. The quality of life after 6 months of treatment and side effects are also assessed.

CC(C)(C)NC(=O)[C@H]1CC[C@H]2[C@@H]3CC[C@H]4NC(=O)C=C[C@]4(C)[C@H]3CC[C@]12C [finasteride]
size of the prostate ([1]; castrated rats receiving testosterone plus treatment): decrease the size of the prostate to roughly the same size as in the non-castrated rats
semen quality ([2]; dog, in vivo): do not adversely effect
semen volume ([2]; dog, in vivo): decrease semen volume
serum DHT concentration, mean percentage decrease ([2]; dogs with BPH, 16 weeks, 0.1 to 0.5 mg/kg PO q 24 h): 58%
prostatic diameter, mean percentage decrease ([2]; dogs with BPH, 16 weeks, 0.1 to 0.5 mg/kg PO q 24 h, measured radiographically): 20%
prostatic volume, mean percentage decrease ([2]; dogs with BPH, 16 weeks, 0.1 to 0.5 mg/kg PO q 24 h, measured ultrasonographically): 43%
quality of life after treatment ([3]; after 6 months of treatment): satisfactory
IPSS symptom score ([3]; at 3 and 6 months): Improvement in IPSS is noted
Maximal flow rate (Qmax) ([3]; at 6 months): significant increase in Qmax
prostatic volume ([3]; at 6 months): found to decrease

C[C@]12CC[C@H]3[C@@H](CCC4=CC(=O)CC[C@@]43C)[C@@H]1CC[C@@H]2O [testosterone]
mean prostate weight ([1]; castrated rats given testosterone, S.E.M. 31.7, p<0.01): 250.0 mg
